One experiment concerns the target T1, Aurora-A (Homo sapiens, UniProt O14965).
T1 sequence (O14965 1-403): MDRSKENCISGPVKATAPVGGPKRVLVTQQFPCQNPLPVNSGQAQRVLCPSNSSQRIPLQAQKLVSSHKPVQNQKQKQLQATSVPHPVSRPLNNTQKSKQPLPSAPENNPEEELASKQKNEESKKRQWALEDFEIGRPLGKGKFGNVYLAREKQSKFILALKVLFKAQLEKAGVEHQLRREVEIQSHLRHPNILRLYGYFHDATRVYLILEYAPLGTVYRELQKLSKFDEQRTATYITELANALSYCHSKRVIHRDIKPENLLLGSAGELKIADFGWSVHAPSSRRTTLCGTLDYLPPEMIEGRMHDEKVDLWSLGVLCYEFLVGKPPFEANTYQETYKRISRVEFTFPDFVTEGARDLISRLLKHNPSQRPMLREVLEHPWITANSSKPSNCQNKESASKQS
Kind of experiment: Aurora-A enzyme assay (MBP-coated Flashplate, γ-33P-ATP). As to conditions: IC50 range class; read-out: Inhibitor Activity vs Aurora-A. Type of experiment: biochemical. The procedure:
(§1) The ability of compounds to inhibit Aurora-A activity was measured using a simple microplate assay for Aurora-A activity, also suitable for high-throughput screening. In brief, γ-^33P-ATP and Aurora-A were incubated in a myelin basic protein (MBP)-coated Flashplate® to generate a scintillation signal. The plates were formatted to contain the inhibitor, controls, positive control (staurosporin) and blanks. After incubation at 37° C. for 1 hour and a subsequent wash procedure, the plates were read on a TopCount-NXT™.
The 384-well basic Flashplate® and the γ-^33P-ATP were obtained from PerkinElmer Life Sciences, Boston, Mass.
(§2) IC50 values were determined by non-linear regression analysis, after fitting the data point results to the equation for sigmoidal dose response with variable slope (% activity against log concentration of compound), using Graphpad Prism software.
Full experimental procedure for this assay can be found within the following reference: Sun, C Journal of Biomolecular Screening 9(5), 2004, 391.

The target in the next experiment is Aurora-B (Homo sapiens, UniProt Q96GD4). Kind of experiment: Aurora-B enzyme assay (identical protocol as Aurora-A). In kind it is biochemical. As to conditions: IC50 range class; read-out: Inhibitor Activity vs Aurora-B. The procedure: as §1, §2
The Aurora-B enzyme assay follows the identical protocol as Aurora-A.

Consider 25 molecules from patent US8148531B2 (Chroma Therapeutics Ltd., priority 2005, dated 2012).

Sequence of Aurora-B (Q96GD4 whole entry): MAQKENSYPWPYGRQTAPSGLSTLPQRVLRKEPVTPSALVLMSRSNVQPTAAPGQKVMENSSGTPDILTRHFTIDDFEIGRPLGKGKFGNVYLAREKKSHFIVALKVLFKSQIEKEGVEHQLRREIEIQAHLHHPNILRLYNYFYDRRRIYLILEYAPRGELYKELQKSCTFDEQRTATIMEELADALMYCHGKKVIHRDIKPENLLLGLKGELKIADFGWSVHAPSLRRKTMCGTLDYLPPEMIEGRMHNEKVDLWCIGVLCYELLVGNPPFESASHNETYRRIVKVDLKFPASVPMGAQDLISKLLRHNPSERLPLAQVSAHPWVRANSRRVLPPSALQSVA

`COc1cc2c(Oc3ccc(NC(=O)c4ccc(Cl)cc4)cc3)ccnc2cc1OCC[C@H](N)C(=O)O` [Example 67, (S)-2-Amino-4-{4-[4-(4-chloro-benzoylamino)-phenoxy]-6-methoxy-quinolin-7-yloxy}-butyric acid]: the IC50 at Aurora-A and on Aurora-B was less than 2 µM throughout.

As to `COc1cc2c(Oc3ccc(NC(=O)c4cc(C(F)(F)F)ccc4F)cc3)ccnc2cc1OCC[C@H](N)C(=O)O` [Example 69, (S)-2-Amino-4-{4-[4-(2-fluoro-5-trifluoromethyl-benzoylamino)-phenoxy]-6-methoxy-quinolin-7-yloxy}-butyric acid], the IC50 was 2 to 5 µM at Aurora-A and less than 2 µM on Aurora-B.

With `COc1cc2c(Oc3ccc(NC(=O)c4cccs4)cc3)ccnc2cc1OCC[C@H](N)C(=O)O` [Example 76, (S)-2-Amino-4-(6-methoxy-4-{4-[(thiophene-2-carbonyl)-amino]-phenoxy}-quinolin-7-yloxy)-butyric acid], the IC50 at Aurora-A and at Aurora-B was less than 2 µM in each case.

For the molecule `COc1cc2c(Oc3ccc(C(=O)Nc4ccccc4)cc3)ccnc2cc1OCC[C@H](N)C(=O)O` [Example 78, (S)-2-Amino-4-[6-methoxy-4-(4-phenylcarbamoyl-phenoxy)-quinolin-7-yloxy]-butyric acid], the IC50 at Aurora-A and at Aurora-B was 2 to 5 µM in each case.

Turning to `COc1cc2c(Oc3ccc(CC(=O)Nc4ccccc4)cc3)ccnc2cc1OCC[C@H](N)C(=O)O` [Example 81, (S)-2-Amino-4-[6-methoxy-4-(4-phenylcarbamoylmethyl-phenoxy)-quinolin-7-yloxy]-butyric acid], the IC50 on Aurora-A and on Aurora-B was 2 to 5 µM each time.

Turning to `COc1cc2c(Oc3ccc(CC(=O)Nc4ccccc4F)cc3)ccnc2cc1OCC[C@H](N)C(=O)O` [Example 83, (S)-2-Amino-4-(4-{4-[(2-fluoro-phenylcarbamoyl)-methyl]-phenoxy}-6-methoxy-quinolin-7-yloxy)-butyric acid], the IC50 on Aurora-A is 2 to 5 µM; at Aurora-B, less than 2 µM.

For the molecule `COc1cc2c(Oc3ccc(CC(=O)Nc4cccc(F)c4)cc3)ccnc2cc1OCC[C@H](N)C(=O)O` [Example 85, (S)-2-Amino-4-(4-{4-[(3-fluoro-phenylcarbamoyl)-methyl]-phenoxy}-6-methoxy-quinolin-7-yloxy)-butyric acid], the IC50 at Aurora-A was 2 to 5 µM; on Aurora-B, less than 2 µM.

For `COc1cc2c(Oc3ccc(CC(=O)Nc4ccc(F)cc4)cc3)ccnc2cc1OCC[C@H](N)C(=O)O` [Example 87, (S)-2-Amino-4-(4-{4-[(4-fluoro-phenylcarbamoyl)-methyl]-phenoxy}-6-methoxy-quinolin-7-yloxy)-butyric acid], the IC50 is greater than 5 µM on Aurora-A and less than 2 µM at Aurora-B.

Turning to `COc1cc2c(Oc3ccc(CC(=O)Nc4ccc(F)cc4F)cc3)ccnc2cc1OCC[C@H](N)C(=O)O` [Example 89, (S)-2-Amino-4-(4-{4-[(2,4-difluoro-phenylcarbamoyl)-methyl]-phenoxy}-6-methoxy-quinolin-7-yloxy)-butyric acid], the figures for the IC50 at Aurora-A and at Aurora-B were greater than 5 µM and less than 2 µM, respectively.

As for `COc1ccc(NC(=O)Cc2ccc(Oc3ccnc4cc(OCC[C@H](N)C(=O)O)c(OC)cc34)cc2)cc1` [Example 91, (S)-2-Amino-4-(6-methoxy-4-{4-[(4-methoxy-phenylcarbamoyl)-methyl]-phenoxy}-quinolin-7-yloxy)-butyric acid], the IC50 at Aurora-A is 2 to 5 µM; on Aurora-B, less than 2 µM.

As for `COc1cc2c(Oc3ccc(NC(=O)Nc4ccc(C(F)(F)F)cc4)cc3)ccnc2cc1OCC[C@H](N)C(=O)O` [Example 94, (S)-2-Amino-4-(6-methoxy-4-{4-[3-(4-trifluoromethyl-phenyl)-ureido]-phenoxy}-quinolin-7-yloxy)-butyric acid], the IC50 at Aurora-A and on Aurora-B was less than 2 µM each time.

As to `COc1cc2c(Oc3ccc(NC(=O)Nc4ccccc4)cc3)ccnc2cc1OCC[C@H](N)C(=O)O` [Example 96, (S)-2-Amino-4-{6-methoxy-4-[4-(3-phenyl-ureido)-phenoxy]-quinolin-7-yloxy}-butyric acid], the IC50 on Aurora-A and on Aurora-B was less than 2 µM throughout.

Turning to `COc1cc2c(Oc3ccc(NC(=O)c4ccccc4)cc3)ccnc2cc1OCC[C@@H](N)C(=O)O` [Example 100, (R)-2-Amino-4-[4-(4-benzoylamino-phenoxy)-6-methoxy-quinolin-7-yloxy]-butyric acid], the IC50 is 2 to 5 µM on Aurora-A and less than 2 µM at Aurora-B.

As to `COc1cc2c(Oc3ccc(NC(=O)Nc4ccccc4)cc3)ccnc2cc1OCC[C@@H](N)C(=O)O` [Example 102, (R)-2-Amino-4-{6-methoxy-4-[4-(3-phenyl-ureido)-phenoxy]-quinolin-7-yloxy}-butyric acid], the IC50 on Aurora-A and at Aurora-B was less than 2 µM throughout.

In the case of `COc1cc2c(Oc3ccc(NC(=O)Nc4ccc(C(F)(F)F)cc4)cc3)ccnc2cc1OCC[C@@H](N)C(=O)O` [Example 105, (R)-2-Amino-4-(6-methoxy-4-{4-[3-(4-trifluoromethyl-phenyl)-ureido]-phenoxy}-quinolin-7-yloxy)-butyric acid], the IC50 at Aurora-A and on Aurora-B was less than 2 µM in each case.

On to `COc1cc2c(Oc3ccc(NC(=O)c4ccccc4)cc3)ccnc2cc1OCCC[C@H](N)C(=O)O` [Example 110, (S)-2-Amino-5-[4-(4-benzoylamino-phenoxy)-6-methoxy-quinolin-7-yloxy]-pentanoic acid], for which the IC50 at Aurora-A and at Aurora-B was less than 2 µM each time.

As to `COc1cc2c(Oc3ccc(NC(=O)Nc4ccccc4)cc3)ccnc2cc1OCCC[C@H](N)C(=O)O` [Example 112, (S)-2-Amino-5-{6-methoxy-4-[4-(3-phenyl-ureido)-phenoxy]-quinolin-7-yloxy}-pentanoic acid], the IC50 at Aurora-A and on Aurora-B was less than 2 µM throughout.

With `COc1cc2c(Oc3ccc(NC(=O)Nc4ccc(C(F)(F)F)cc4)cc3)ccnc2cc1OCCC[C@H](N)C(=O)O` [Example 114, (S)-2-Amino-5-(6-methoxy-4-{4-[3-(4-trifluoromethyl-phenyl)-ureido]-phenoxy}-quinolin-7-yloxy)-pentanoic acid], the IC50 at Aurora-A and on Aurora-B was less than 2 µM each time.

Take `COc1cc2c(Oc3ccc(NC(=O)c4ccccc4)cc3)ccnc2cc1OCCC[C@@H](N)C(=O)O` [Example 116, (R)-2-Amino-5-[4-(4-benzoylamino-phenoxy)-6-methoxy-quinolin-7-yloxy]-pentanoic acid]: the IC50 at Aurora-A and at Aurora-B was less than 2 µM in each case.

With `COc1cc2c(Oc3ccc(NC(=O)Nc4ccccc4)cc3)ccnc2cc1OCCC[C@@H](N)C(=O)O` [Example 118, (R)-2-Amino-5-{6-methoxy-4-[4-(3-phenyl-ureido)-phenoxy]-quinolin-7-yloxy}-pentanoic acid], the IC50 at Aurora-A and on Aurora-B was less than 2 µM in each case.

Consider `COc1cc2c(Oc3ccc(NC(=O)Nc4ccc(C(F)(F)F)cc4)cc3)ccnc2cc1OCCC[C@@H](N)C(=O)O` [Example 120, (R)-2-Amino-5-(6-methoxy-4-{4-[3-(4-trifluoromethyl-phenyl)-ureido]-phenoxy}-quinolin-7-yloxy)-pentanoic acid], for which the IC50 at Aurora-A and at Aurora-B was less than 2 µM in each case.

`COc1cc2c(Sc3ccc(NC(=O)Nc4ccc(C(F)(F)F)cc4)cc3)ccnc2cc1OCCC[C@@H](N)C(=O)O` [Example 122, (R)-2-Amino-5-(6-methoxy-4-{4-[3-(4-trifluoromethyl-phenyl)-ureido]-phenylsulfanyl}-quinolin-7-yloxy)-pentanoic acid]: the IC50 at Aurora-A and on Aurora-B was less than 2 µM throughout.

On to `COc1cc2c(Oc3ccc(NC(=O)Nc4ccc(C(F)(F)F)cc4)cc3F)ccnc2cc1OCCC[C@@H](N)C(=O)O` [Example 124, (R)-2-Amino-5-(4-{2-fluoro-4-[3-(4-trifluoromethyl-phenyl)-ureido]-phenoxy}-6-methoxy-quinolin-7-yloxy)-pentanoic acid], for which the IC50 at Aurora-A and on Aurora-B was less than 2 µM throughout.

Regarding `COc1cc2c(Oc3ccc(NC(=O)Nc4ccc(C(F)(F)F)cc4)cc3F)ccnc2cc1OCC[C@H](N)C(=O)O` [Example 126, (S)-2-Amino-4-(4-{2-fluoro-4-[3-(4-trifluoromethyl-phenyl)-ureido]-phenoxy}-6-methoxy-quinolin-7-yloxy)-butyric acid], the IC50 at Aurora-A and at Aurora-B was less than 2 µM each time.

On to `COc1cc2c(Oc3ccc(NC(=O)c4ccccc4)cc3F)ccnc2cc1OCC[C@H](N)C(=O)O` [Example 129, (S)-2-Amino-4-[4-(4-benzoylamino-2-fluoro-phenoxy)-6-methoxy-quinolin-7-yloxy]-butyric acid], for which the IC50 on Aurora-A and at Aurora-B was less than 2 µM throughout.
